Measured values from ChEMBL document CHEMBL5143649, “Broad-spectrum cyclic boronate β-lactamase inhibitors featuring an intramolecular prodrug for oral bioavailability” (Bioorg Med Chem, 2022).

What was measured:
[1] = test system: Escherichia coli; assay: Potentiation of aztreonam-induced antibacterial activity against Escherichia coli 308 producing SHV-5 assessed as concentration required to reduce aztreonam MIC to 4 ug/ml by CLSI based broth microdilution method; type: functional
[2] = test system: Klebsiella pneumoniae; assay: Potentiation of aztreonam-induced antibacterial activity against Klebsiella pneumoniae 1009 producing class A CTX-M-14 assessed as concentration required to reduce aztreonam MIC to 4 ug/ml by CLSI based broth microdilution method; type: functional
[3] = test system: Escherichia coli; assay: Potentiation of aztreonam-induced antibacterial activity against Escherichia coli 302 producing TEM-10 assessed as concentration required to reduce aztreonam MIC to 4 ug/ml by CLSI based broth microdilution method; type: functional
[4] = test system: Klebsiella pneumoniae; assay: Potentiation of aztreonam-induced antibacterial activity against Klebsiella pneumoniae 1004 producing KPC assessed as concentration required to reduce aztreonam MIC to 4 ug/ml by CLSI based broth microdilution method; type: functional
[5] = test system: Enterobacter cloacae; assay: Potentiation of aztreonam-induced antibacterial activity against Enterobacter cloacae 1002 producing AmpC assessed as concentration required to reduce aztreonam MIC to 4 ug/ml by CLSI based broth microdilution method; type: functional
[6] = test system: Escherichia coli; assay: Potentiation of aztreonam-induced antibacterial activity against Escherichia coli 1010 producing CMY-6 assessed as concentration required to reduce aztreonam MIC to 4 ug/ml by CLSI based broth microdilution method; type: functional
[7] = Oral bioavailability in rat; type: ADME, organism-based; conditions: in vivo
[8] = test system: Klebsiella pneumoniae; assay: microbe, parasite or virus in culture; conditions: 1009
[9] = test system: Escherichia coli; assay: microbe, parasite or virus in culture; conditions: 308
[10] = test system: Escherichia coli; assay: microbe, parasite or virus in culture; conditions: 302
[11] = test system: Klebsiella pneumoniae; assay: microbe, parasite or virus in culture; conditions: 1004
[12] = test system: Escherichia coli; assay: microbe, parasite or virus in culture; conditions: 1010
[13] = AUC in rat at 30 mg/kg administered as iv infusion for 0.5 hrs and measured upto 24 hrs by HPLC-MS analysis; type: ADME, organism-based; design: time < 24.5 hrs, dose 30 mg/kg, route iv; conditions: in vivo
[14] = AUC in rat at 100 mg/kg administered as iv infusion for 0.5 hrs and measured upto 24 hrs by HPLC-MS analysis; type: ADME, organism-based; design: dose 100 mg/kg, time < 24.5 hrs, route iv; conditions: in vivo
[15] = AUC in rat at 300 mg/kg administered as iv infusion for 0.5 hrs and measured upto 24 hrs by HPLC-MS analysis; type: ADME, organism-based; design: time < 24.5 hrs, dose 300 mg/kg, route iv; conditions: in vivo
[16] = AUC in rat at 30 mg/kg, po measured upto 24 hrs by HPLC-MS analysis; type: ADME, organism-based; design: dose 30 mg/kg, time < 24 hrs, route po; conditions: in vivo
[17] = Oral bioavailability in rat at 30 mg/kg measured upto 24 hrs by HPLC-MS analysis; type: ADME, organism-based; conditions: in vivo
[18] = AUC in rat at 100 mg/kg, po measured upto 24 hrs by HPLC-MS analysis; type: ADME, organism-based; design: time < 24 hrs, dose 100 mg/kg, route po; conditions: in vivo
[19] = AUC in rat at 300 mg/kg, po measured upto 24 hrs by HPLC-MS analysis; type: ADME, organism-based; design: dose 300 mg/kg, time < 24 hrs, route po; conditions: in vivo
[20] = Oral bioavailability in rat at 100 mg/kg measured upto 24 hrs by HPLC-MS analysis; type: ADME, organism-based; conditions: in vivo
[21] = Oral bioavailability in rat at 300 mg/kg measured upto 24 hrs by HPLC-MS analysis; type: ADME, organism-based; conditions: in vivo

Compound | EC [1] [µg/mL] | EC [2] [µg/mL] | EC [3] [µg/mL] | EC [4] [µg/mL] | EC [5] [µg/mL] | EC [6] [µg/mL] | other results
O=C(O)CC1CCC[C@H](NC(=O)Cc2cccs2)B(O)O1 (stereo partly drawn) | 10 | 10 | >40 | 20 | 10 | 10 | 
O=C(O)CC1COC[C@H](NC(=O)Cc2cccs2)B(O)O1 (stereo partly drawn) | 5 | 5 | 20 | 40 | 10 | 10 | 
O=C(Cc1cccs1)N[C@H]1CC=C[C@@H]2CC(=O)OB1O2 |  |  |  |  |  |  | bioavailability [7]: 48%
Nc1nnc(SCC(=O)N[C@H]2CC=C[C@H](CC(=O)O)OB2O)s1 | 1.25 | 2.5 | 5 | 5 | 0.6 | 1.25 | 
C[C@H]1[C@H](NC(=O)/C(=N\OC(C)(C)C(=O)O)c2csc(N)n2)C(=O)N1S(=O)(=O)O [AZTREONAM] |  |  |  |  |  |  | MIC [8]: > 64 µg/mL; MIC [9]: > 64 µg/mL; MIC [10]: > 64 µg/mL; MIC [11]: > 64 µg/mL; MIC [12]: > 64 µg/mL
COC(=O)N1CC(CC(=O)O)OB(O)[C@@H](NC(=O)Cc2cccs2)C1 (stereo partly drawn) | 2.5 | 10 | 20 | 40 |  | 20 | 
O=C(O)C[C@@H]1C=CC[C@H](NC(=O)Cc2cccs2)B(O)O1 | 10 | 20 | >40 | 40 | 10 | 40 | 
O=C(O)C[C@H]1C=CC[C@H](NC(=O)Cc2cccs2)B(O)O1 | 1.25 | 5 | 5 | 10 | 2.5 | 10 | 
CC(=O)N1CC(CC(=O)O)OB(O)[C@@H](NC(=O)Cc2cccs2)C1 (stereo partly drawn) | 1.25 | 5 | 20 | 40 | 20 | 10 | 
O=C(O)C[C@H]1C=CC[C@H](NC(=O)c2cccnc2)B(O)O1 | 2.5 | 5 | 1.25 | 10 | 1.25 | 1.25 | 
CSCC(=O)N[C@H]1CC=C[C@H](CC(=O)[O-])OB1O.[Na+] |  |  |  |  |  |  | AUC at 24.5 h [13]: 28100 ng·h/mL; AUC at 24.5 h [14]: 79400 ng·h/mL; AUC at 24.5 h [15]: 276000 ng·h/mL; AUC at 24 h [16]: 2600 ng·h/mL; bioavailability [17]: 9.3%
O=C(O)CC1C=CC[C@H](NC(=O)Cc2cccs2)B(O)O1 (stereo partly drawn) | 2.5 | 10 | 10 | 20 | 10 | 20 | 
CSCC(=O)N[C@H]1CC=C[C@@H]2CC(=O)OB1O2 |  |  |  |  |  |  | AUC at 24 h [16]: 14600 ng·h/mL; AUC at 24 h [18]: 55000 ng·h/mL; AUC at 24 h [19]: 179000 ng·h/mL; bioavailability [17]: 52%; bioavailability [20]: 69.3%; bioavailability [21]: 64.9%
CSCC(=O)N[C@H]1CC=C[C@H](CC(=O)O)OB1O | 1.25 | 2.5 | 5 | 10 | 1.25 | 5 | 
O=C(O)C[C@@H]1CC[C@H](NC(=O)Cc2cccs2)B(O)O1 [VABORBACTAM] | >40 | >40 | >40 | 1.25 | 20 | 20 | bioavailability [7]: < 10%
